Test results taken from patent EP4497440A1, “USE OF 7-TRIFLUOROMETHYL-7ALPHA,25-DIHYDROXYCHOLESTEROL IN THE TREATMENT AND MODULATION OF AUTOIMMUNE AND INFLAMMATORY DISEASES OF THE NERVOUS SYSTEM AND NEURODEGENERATIVE DISEASES” (Gdanski Uniwersytet Medyczny, priority 2023, dated 2025).
Entries after “also recorded” stand apart in the source; their conditions may differ.

Tested on: mouse organotypic cerebellar slices
Experiment: Remyelination of organotypic cerebellar slices after LPC demyelination (Mbp mRNA by quantitative PCR)
Format: cell-based
Details: LPC 0.4 mg/ml, then treatment in serum-free culture medium for 14-16 days; barbadin 16 µM, 7α,25OHC 0.1 µM, NIBR189 10 µM; concentration of CF3-7α,25OHC not given; vs untreated LPC slices
Protocol: Organotypic cerebellar slices were sampled from ten-day old mice and then grown in an incubator for 14 days. After 14 days the myelin was chemically removed with LPC (0.4 mg/ml). Following the removal of the myelin sheaths, the slices were treated with: • 1. the control group: regular culture medium, without LPC • 2. LPC, then on serum-free culture medium for 14-16 days • 3. LPC followed by barbadin 16 µM in serum-free culture medium for 14-16 days • 4. LPC followed by 7α,25OHC 0.1 µM in serum-free culture medium for 14-16 days • 5. LPC followed by NIBR189 10 µM in serum-free culture medium for 14-16 days • 6. LPC followed by barbadin 16 µM + 7α,25OHC 0.1 µM in serum-free culture medium for 14-16 days
Once the experiment was completed (remyelination for 14-16 days) the slices were collected and MBP mRNA levels were measured by the PCR quantitative method. In the mouse organotypic cerebellar slices in which myelin sheaths were chemically removed with lysophosphatidylcholine (LPC) spontaneous myelin regeneration took place except for the slices treated with a selective EBI2 receptor antagonist (NIBR189). The results once again reveal key significance of EBI2 intracellular signalling for myelin regeneration. […] Barbadin, which inhibits internalisation of the EBI2 receptor, is necessary to achieve the therapeutic effect (faster remyelination) in the case of non-modified oxysterol (Fig 1 and Fig 2a).

C[C@H](CCCC(C)(C)O)[C@H]1CC[C@H]2[C@H]3[C@H](CC[C@]12C)[C@@]1(C)CC[C@H](O)CC1=C[C@]3(O)C(F)(F)F [CF3-7α,25OHC, cholestene-7β-trifluoromethyl,3β,7α,25-triol]
remyelination (Mbp expression): remyelinate quicker than slices not treated with anything; also recorded: remyelinate faster than the untreated slices
